The text below walks through data of paper PMC2574882 (The Biochemical journal, 2008).

Entries after “also recorded” stand apart in the source; their conditions may differ.

The conditions of data set [1]: cited from earlier work.
In data set [2] the test system is cell proliferation and migration. The note with it: cited from earlier work.
Data set [3] in a line: Absorption titration with ferric citrate. The format is binding. The note with it: by relative association constants.
Another data set deals with T1, human CCK1 receptor (Homo sapiens, UniProt P32238).
T1 sequence (P32238 1-428): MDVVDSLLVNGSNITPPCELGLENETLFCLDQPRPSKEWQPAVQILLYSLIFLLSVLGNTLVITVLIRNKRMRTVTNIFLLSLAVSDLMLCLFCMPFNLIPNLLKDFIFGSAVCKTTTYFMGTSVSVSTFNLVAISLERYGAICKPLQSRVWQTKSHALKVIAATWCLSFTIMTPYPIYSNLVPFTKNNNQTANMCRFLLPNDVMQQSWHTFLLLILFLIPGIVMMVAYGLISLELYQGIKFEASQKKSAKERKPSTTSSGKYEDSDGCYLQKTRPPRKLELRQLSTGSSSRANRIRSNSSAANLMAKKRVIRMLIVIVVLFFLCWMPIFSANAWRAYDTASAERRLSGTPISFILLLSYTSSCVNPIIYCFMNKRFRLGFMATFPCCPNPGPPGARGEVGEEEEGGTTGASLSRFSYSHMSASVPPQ
The experiment in a line: Receptor binding assay, CCK1 receptor. The note with it: 1 μM desferrioxamine, COS-7 cells; triplicates, ANOVA.

For another data set, the target named is T2, human CCK2 receptor (Homo sapiens, UniProt P32239).
T2 sequence (P32239 1-447): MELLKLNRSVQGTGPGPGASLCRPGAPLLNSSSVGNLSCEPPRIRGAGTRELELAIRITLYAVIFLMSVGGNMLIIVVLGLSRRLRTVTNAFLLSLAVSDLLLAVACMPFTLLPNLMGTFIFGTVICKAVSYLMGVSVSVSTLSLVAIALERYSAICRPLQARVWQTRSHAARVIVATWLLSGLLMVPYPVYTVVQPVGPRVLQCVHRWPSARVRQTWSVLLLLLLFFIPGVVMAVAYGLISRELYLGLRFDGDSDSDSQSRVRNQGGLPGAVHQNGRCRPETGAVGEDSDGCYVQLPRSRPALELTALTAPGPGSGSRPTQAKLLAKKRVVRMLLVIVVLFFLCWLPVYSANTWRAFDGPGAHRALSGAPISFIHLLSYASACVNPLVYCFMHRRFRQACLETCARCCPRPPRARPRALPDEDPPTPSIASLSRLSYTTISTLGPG
The experiment in a line: Receptor binding assay, CCK2 receptor. The note with it: 1 μM desferrioxamine, COS-7 cells; triplicates, ANOVA.

Data set [4] can be described thus: NMR titration with ferric ions. It is filed as binding. To be noted: pH 4.0, 298 K, FeCl3, precipitate in the NMR tube.
Another data set in a line: Solubility for NMR. It is filed as physicochemical. To be noted: 80% H2O/10% ^2H2O/10% 2H6-DMSO.
Data set [5] in a line: Absorption spectroscopy titration with ferric chloride. The note with it: 40 μM peptide, 298 K.

In the case of `N[C@@H](Cc1ccc(OP(=O)(O)O)cc1)C(=O)O` [phosphotyrosine], in data set [1], the “pKa of the phosphoryl group” value is 5.9.

Turning to “ZGPWLEEEEEAYGWMDFamide [amidated gastrin]”, in data set [2], the “requirement of ferric ions for biological activity (in words)” value was “ferric ions were not required for the biological activity”.

As for `O=C(O)CC(O)(CC(=O)O)C(=O)O` [citrate], the “relative Fe^3+ binding (in words)” value in data set [3] is on record as “binds Fe^3+ ions more tightly than any of the CCK peptides”.

For the compound `CC(=O)N(O)CCCCCNC(=O)CCC(=O)N(O)CCCCCNC(=O)CCC(=O)N(O)CCCCCN` [desferrioxamine], the “effect on binding of labelled CCK8SO4, CCK1 receptor (in words)” value at human CCK1 receptor is reported as “no significant effect; also recorded: inability”. Moreover, the “effect on binding of labelled CCK8SO4, CCK2 receptor (in words)” value at human CCK2 receptor is reported as “no significant effect; also recorded: inability”. Further, in data set [2] (stimulation of cell proliferation and migration), the “effect on biological activity of glycine-extended gastrin (in words)” value was “completely blocked the biological activity of glycine-extended gastrin”.

On to `CSCC[C@H](NC(=O)[C@H](Cc1ccc(O)cc1)NC(=O)[C@@H](N)CC(=O)O)C(=O)NCC(=O)N[C@@H](Cc1c[nH]c2ccccc12)C(=O)N[C@@H](CCSC)C(=O)N[C@@H](CC(=O)O)C(=O)N[C@@H](Cc1ccccc1)C(N)=O` [CCK8], for which the “solubility of Fe^3+-peptide complex (in words)” value in data set [4] was “formation of an insoluble Fe^3+-peptide complex”. In addition, in “Solubility for NMR”, the “solubility (in words)” value was “required the presence of ^2H6-DMSO (80% H2O/10% ^2H2O/10% 2H6-DMSO) to achieve solubility at 0.23 mM”.

In the case of CCK4, the “absorbance change on addition of ferric chloride, pH 4.0 (in words)” value in data set [5] (pH 4.0, 275 nm) is “no change in the absorbance; also recorded: did not cause any change in absorption”. The “absorbance change / binding on addition of ferric chloride, pH 6.5 (in words)” value in data set [5] (pH 6.5, 275 nm) is listed as “No evidence of binding of ferric ions; also recorded: no increase in absorbance was seen”.
